In the supplement of paper PMC10307832:

Columns and labels:
Assay in all cases: relative viability (nuclei count vs DMSO), 5 days (fraction); higher = more cells survive
Crizotinib + AZD7762 = compound: C[C@@H](Oc1cc(-c2cnn(C3CCNCC3)c2)cnc1N)c1c(Cl)ccc(F)c1Cl [Crizotinib] + NC(=O)Nc1cc(-c2cccc(F)c2)sc1C(=O)N[C@H]1CCCNC1 [AZD7762] (partner 0.2 µM)
In short: (§1)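 Cells from lung cancer lines were seeded into 1536-well plates and, one day later, dosed by pin tool. Treatments were either a single drug or a fixed dose of an anchor drug with five library-drug doses (not always all listed) in √10 steps. After 5 days, nuclei were stained in a one-step fixation (final 0.05% Triton X-100, 1% formaldehyde, 1 ug/ml Hoechst) and counted on 4× images, and relative viability is the treated-to-vehicle nuclei ratio, as the median of duplicate plates.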

Olaparib + Decitabine = compound: O=C(c1cc(Cc2n[nH]c(=O)c3ccccc23)ccc1F)N1CCN(C(=O)C2CC2)CC1 [Olaparib] + Nc1ncn([C@H]2C[C@H](O)[C@@H](CO)O2)c(=O)n1 [Decitabine] (partner 2 µM)
In short: as §1

Carfilzomib + Linsitinib = compound: CC(C)C[C@H](NC(=O)[C@H](CCc1ccccc1)NC(=O)CN1CCOCC1)C(=O)N[C@@H](Cc1ccccc1)C(=O)N[C@@H](CC(C)C)C(=O)[C@@]1(C)CO1 [Carfilzomib] + C[C@]1(O)C[C@@H](c2nc(-c3ccc4ccc(-c5ccccc5)nc4c3)c3c(N)nccn32)C1 [Linsitinib] (partner 1 µM)
In short: as §1

Olaparib + Luminespib = compound: O=C(c1cc(Cc2n[nH]c(=O)c3ccccc23)ccc1F)N1CCN(C(=O)C2CC2)CC1 [Olaparib] + CCNC(=O)c1noc(-c2cc(C(C)C)c(O)cc2O)c1-c1ccc(CN2CCOCC2)cc1 [Luminespib] (partner 0.01 µM)
In short: as §1

| Cell Line | relative viability (Crizotinib + AZD7762; first compound 0.01 µM) | relative viability (Crizotinib + AZD7762; first compound 0.03162 µM) | relative viability (Crizotinib + AZD7762; first compound 0.1 µM) | relative viability (Crizotinib + AZD7762; first compound 1 µM) | relative viability (Olaparib + Decitabine; first compound 0.08 µM) | relative viability (Olaparib + Decitabine; first compound 0.253 µM) | relative viability (Olaparib + Decitabine; first compound 2.53 µM) | relative viability (Olaparib + Decitabine; first compound 8 µM) | relative viability (Carfilzomib + Linsitinib; first compound 0.001 µM) | relative viability (Carfilzomib + Linsitinib; first compound 0.003162 µM) | relative viability (Carfilzomib + Linsitinib; first compound 0.01 µM) | relative viability (Carfilzomib + Linsitinib; first compound 0.03162 µM) | relative viability (Carfilzomib + Linsitinib; first compound 0.1 µM) | relative viability (Olaparib + Luminespib; first compound 0.08 µM) | relative viability (Olaparib + Luminespib; first compound 0.253 µM) | relative viability (Olaparib + Luminespib; first compound 2.53 µM) | relative viability (Olaparib + Luminespib; first compound 8 µM) | relative viability (Crizotinib + AZD7762; first compound 0.3162 µM) |
| --- | --- | --- | --- | --- | --- | --- | --- | --- | --- | --- | --- | --- | --- | --- | --- | --- | --- | --- |
| EMC-BAC-2 | 1.07 | 1.1 | 1.05 | 1.08 | 0.931 | 0.869 | 0.669 | 0.599 | 0.78 | 0.786 | 0.844 | 0.836 | 0.401 | 1.12 | 1.02 | 0.955 | 0.646 |  |
| NCI-H596 | 1.05 | 1.01 | 1.03 | 1.16 | 0.915 | 0.9 | 0.732 | 0.632 | 1.11 | 1.03 | 1.16 | 0.628 | 0.449 | 0.93 | 0.883 | 0.788 | 0.638 |  |
| NCI-H2347 | 0.773 | 0.663 | 0.772 | 0.884 | 0.644 | 0.558 | 0.531 | 0.516 | 0.983 | 1.06 | 0.962 | 0.785 | 0.391 | 0.43 | 0.615 | 0.398 | 0.259 | 0.582 |
| NCI-H322M |  | 0.575 | 0.609 | 0.584 | 0.685 | 0.592 | 0.708 | 0.596 | 0.806 | 0.929 | 0.913 | 0.99 | 0.489 | 0.98 | 0.821 | 0.906 | 0.527 | 0.547 |
| NCI-H2085 | 0.961 | 1.01 | 0.986 | 1.02 | 0.545 | 0.49 | 0.43 | 0.46 | 0.843 | 0.835 | 0.778 | 0.418 | 0.235 | 0.499 | 0.381 | 0.427 | 0.437 | 0.737 |
| LU99A | 0.276 | 0.362 | 0.34 | 0.407 | 0.933 | 0.753 | 0.601 | 0.566 | 0.547 | 0.514 | 0.508 | 0.225 | 0.159 | 0.249 | 0.254 | 0.21 | 0.206 | 0.32 |
| NCI-H1395 | 0.381 | 0.372 | 0.429 | 0.397 | 0.64 | 0.654 | 0.504 | 0.494 | 1.28 | 1.16 | 0.795 | 1.4 | 0.307 | 0.633 | 0.533 | 0.62 | 0.447 | 0.43 |
| HCC-15 | 1.07 | 0.721 | 1.2 | 1.14 | 0.682 | 0.479 | 0.463 | 0.344 | 0.847 | 0.958 | 0.937 | 0.765 | 0.168 | 0.462 | 0.372 | 0.346 | 0.191 |  |
| RERF-LC-KJ | 1.02 | 0.956 | 0.956 | 0.994 | 0.703 | 0.637 | 0.558 | 0.451 | 0.888 | 0.919 | 1.05 | 0.776 | 0.353 | 1.22 | 1.08 | 1.23 | 1 | 0.946 |
| NCI-H647 | 0.444 | 0.626 | 0.403 | 0.595 | 0.293 | 0.253 | 0.227 | 0.152 | 0.942 | 1.16 | 0.761 | 0.0416 | 0.0315 | 0.126 | 0.186 | 0.15 | 0.121 | 0.394 |
| 201T | 0.6 | 0.628 | 0.558 | 0.716 | 0.819 | 0.68 | 0.611 | 0.632 | 0.992 | 1.07 | 1.1 | 1.09 | 1.02 | 1.08 | 0.959 | 1.03 | 0.972 | 0.575 |
| HOP-62 | 0.447 | 0.508 | 0.622 | 0.633 | 0.18 | 0.17 | 0.234 | 0.178 | 0.991 | 0.992 | 0.924 | 0.133 | 0.0627 | 1 | 0.809 | 0.744 | 0.476 | 0.565 |
| NCI-H1734 | 0.51 | 0.509 | 0.553 | 0.616 | 0.418 | 0.311 | 0.237 | 0.229 | 0.871 | 0.986 | 0.855 | 0.715 | 0.205 | 0.212 | 0.205 | 0.185 | 0.183 |  |
| NCI-H2405 | 0.632 | 0.695 | 0.684 | 0.755 | 0.681 | 0.55 | 0.458 | 0.486 |  | 1.19 | 1.01 | 0.389 | 0.16 | 0.646 | 0.651 | 0.685 | 0.782 | 0.763 |
| NCI-H727 | 0.566 | 0.568 | 0.567 | 0.661 | 0.908 | 0.858 | 0.893 | 0.805 | 0.406 | 0.249 | 0.301 | 0.431 | 0.117 | 0.446 | 0.531 | 0.461 | 0.346 | 0.433 |
| HCC-44 | 0.971 | 0.997 | 1.04 | 1.02 | 0.812 | 0.846 | 0.783 | 0.802 | 0.592 | 0.75 | 0.673 | 0.487 | 0.174 | 1.44 | 0.984 | 0.449 | 0.411 | 0.936 |
| A-427 | 0.709 | 0.766 | 0.773 | 0.684 | 0.471 | 0.478 | 0.483 | 0.404 | 1.12 | 1.11 | 1.11 | 1.01 | 0.119 | 1.02 | 0.856 | 0.859 | 0.898 |  |
